Laboratory results as given in patent US20240009202A1, “MITOCHONDRIA-TARGETED ANTIOXIDANT AS AGENT FOR TREATING PATHOLOGIC INFLAMMATION CAUSED BY MABC-R INFECTION” (MITOIMMUNE THERAPEUTICS INC., priority 2020, published 2024).

Tests used:
[1] = system: mitochondrial ROS; assay: MitoSOX Red staining of mitochondrial ROS in Mabc-R-infected BMDMs; type: cell-based, mouse; details: WT BMDMs, Mabc-R MOI=5, 2 hours, 20 μM, MitoSOX Red (FIG. 5A)
Procedure: (§1) Scale bar, 50 μm. (B to E) WT mice (n=5 each group) were left uninfected or infected intranasally with Mabc-R (1×10^7 CFU), prior to treatment with or without the compound represented by Chemical Formula 1 (30 mg/kg) and monitored at 10 days post-infection. […] The ratio of damaged mitochondria among total mitochondria was calculated quantitatively (scale bars, 200 nm). […] (*P<0.05, **P<0.01, ***P<0.001, n.s., not significant. One-way ANOVA (right) or non-parametric test (B, C, D right and E)). (Data represents three independent experiments (A left and D), and values represent means (±SEM) from three or four independent experiments performed in triplicate (A right, B, C, and E))
Mitochondrial ROS were measured as described previously in Reference. […] After 20 minutes, the cells were washed and measured using an immunofluorescence assay. […] The mean fluorescence intensity (MFI) level of mitochondrial ROS was calculated for each sample. Each experiment was performed in triplicate, and at least 200 cells per well were counted.
The mitochondrial ROS scavenger MIT-001 (previously, NecroX-7) removes mitochondrial ROS, calcium, and reactive nitrogen species (References [32 and 33]). […] The present inventors next determined whether inhibition of mitochondrial ROS generation enhanced antimicrobial effects in vivo. […]

[2] = system: Sirt3 mRNA; assay: qRT-PCR analysis for Sirt3 mRNA expression in lungs of Mabc-R-infected mice; type: in vivo, mouse; details: 30 mg/kg, 10 dpi (FIG. 5E)
Procedure: as §1
(§2) RNA extraction and qPCR were performed as described in Reference. Briefly, total RNA from BMDMs or lung tissues was isolated using the TRIzol reagent (Thermo Fisher Scientific). cDNA synthesis was performed using Superscript II reverse transcriptase (Invitrogen, 18064). qPCR was performed using cDNA, primers, and SYBR Green PCR Kits (Qiagen, 204074) using a Real-time PCR Cycler Rotor-Gene Q 2plex system (Qiagen GmbH, 9001620, Hilden, Germany). The samples were amplified for 50 cycles as follows: 95° C. for 5 seconds and 60° C. for 10 seconds. To analyze qPCR data, relative quantification was performed using the 2^ΔΔCt method using Gapdh as an internal control gene. Data was expressed as a relative fold change. […]

[3] = system: Mabc-R; assay: Pulmonary CFU assay in mice infected intranasally with Mabc-R; type: in vivo, mouse; details: WT mice, intranasal Mabc-R 1×10^7 CFU, 30 mg/kg at 1, 3, 5, 7 and 9 dpi, sacrificed at 10 dpi (FIG. 5B)
[4] = system: inflammatory cytokines/chemokines (Tnf, Il1b, Il6, Cxcl2, Cxcl5); assay: qRT-PCR analysis for cytokines/chemokines in lung tissues of Mabc-R-infected mice; type: in vivo, mouse; details: WT mice, intranasal Mabc-R 1×10^7 CFU, 30 mg/kg, 10 dpi (FIG. 5C)
Procedure: as §1, §2

[5] = system: mitochondria in alveolar cells of lung tissues; assay: TEM analysis of damaged mitochondria in lung tissues of Mabc-R-infected mice; type: in vivo, mouse; details: Mabc-R-infected mice vs vehicle control mice, 30 mg/kg, 10 dpi, TEM (FIG. 5D)
Procedure: as §1
SIRT3 WT and KO mouse lung tissues were fixed with 2.5% glutaraldehyde in a 0.1 M cacodylate buffer (pH 7.2) containing 0.1% CaCl2). After 3 hours, the cells were post-fixed with 1% OsO4 in a 0.1 M sodium cacodylate buffer containing 0.1% CaCl2) for 2 hours. The tissues were rinsed with cold distilled water and slowly dehydrated using an ethanol series and propylene oxide at 4° C. The tissues were embedded in Embed-812 and cured at 60° C. for 30 hours. Ultrathin sections (70 nm) were cut with a diamond knife and an ULTRACUT UC7 ultramicrotome (Leica) and mounted on formvar-coated copper grids. Sections were stained with 4% uranyl acetate for 7 minutes and lead citrate for 7 minutes. […]

[6] = system: TNF; assay: TNF secretion in lung tissues of Mabc-R-infected mice (ELISA); type: in vivo, mouse; details: Mabc-R-infected mice treated with MIT-001
Procedure: The concentration of TNF in lung tissues was measured using a commercially available ELISA kit (BD Biosciences, 558534, San Jose, CA, USA). Experiments were performed according to the protocol provided by the manufacturer.
We next examined the in vivo effects of MIT-001 on pathological inflammatory responses during Mabc-R infection.

[7] = system: SIRT3; assay: qRT-PCR of Tnf, Il6 and Cxcl2 in Mabc-R-infected BMDMs with 3-TYP; type: cell-based, mouse; details: 3-TYP 50 μM pretreatment, Mabc-R MOI=3, 3 hours (FIG. 3B)
Procedure: (§3) BMDMs of B and PMs of C were prepared from SIRT3 WT and KO mice, and were infected with Mabc-R (MOI=3) in the presence or absence of 3-TYP (50 μM) for 3 hours. Quantitative real-time PCR analysis for Tnf, Il6, and Cxcl2 was performed. […] (Scale bar, 50 μm. *P<0.05, **P<0.01, ***P<0.001. UI, uninfected. One-way ANOVA (A to D). Data is representative of three independent experiments (D left), and values represent means (±SEM) from three or four independent experiments performed in triplicate (A to C, D right))
(§4) Primary mouse bone marrow-derived macrophages (BMDMs) were isolated and cultured as previously described. BMDMs were isolated and differentiated after culture for 4 to 5 days in medium containing 25 ng/mL macrophage colony-stimulating factor (R&D Systems, Minneapolis, MIN, USA). Peritoneal macrophages (PMs) were isolated 2 to 3 days after injection with 1 mL of PBS supplemented with 3% thioglycollate (Sigma-Aldrich, St. Louis, MO, USA). Prior to isolation, PMs in the mouse abdominal cavity were collected with pre-chilled PBS supplemented with 10% FBS. […]
(§5) RNA extraction and qPCR were performed as described in Reference. […] To analyze qPCR data, relative quantification was performed using the 2^ΔΔCt method using Gapdh as an internal control gene. Data was expressed as a relative fold change. […]

[8] = system: SIRT3; assay: qRT-PCR of Tnf, Il6 and Cxcl2 in Mabc-R-infected PMs with 3-TYP; type: cell-based, mouse; details: 3-TYP 50 μM pretreatment, Mabc-R MOI=3, 3 hours (FIG. 3C)
Procedure: as §3, §4, §5

SMILES | generation of mitochondrial ROS in response to Mabc-R infection [1] | Sirt3 mRNA levels in mouse lungs [2] | in vivo bacterial loads in the lungs (pulmonary CFU) [3] | mRNA expression of inflammatory cytokines/chemokines including Tnf, Il1b, Il6, Cxcl2 and Cxcl5 in lung tissues [4] | damaged mitochondria with disrupted cristae in alveolar cells of lung tissues [5] | TNF secretion in lung tissues [6] | mRNA expression of proinflammatory cytokines (Tnf, Il6, Cxcl2) after infection with Mabc-R ([7]; SIRT3 KO BMDMs) | mRNA expression of Tnf, Il6, and Cxcl2 in response to Mabc-R ([7]; SIRT3 WT BMDMs) | mRNA expression of proinflammatory cytokines (Tnf, Il6, Cxcl2) after infection with Mabc-R ([8]; SIRT3 KO PMs) | mRNA expression of Tnf, Il6, and Cxcl2 in response to Mabc-R ([8]; SIRT3 WT PMs)
O=S1(=O)CCN(Cc2cc(NC3CCOCC3)c3[nH]c(-c4ccccc4)cc3c2)CC1 [MIT-001, 5-[(1,1-dioxido-4-thiomorpholinyl)methyl]-2-phenyl-N-(tetrahydro-2H-pyran-4-yl)-1H-indol-7-amine] | remarkably suppressed | significantly recovered | significantly inhibited | remarkably ameliorated | considerably fewer damaged mitochondria | significantly downregulated | – | – | – | –
c1cncc(-c2cn[nH]n2)c1 [3-TYP] | – | – | – | – | – | – | no significant effect | significantly increased | no significant effect | significantly increased
